Experimental data published in patent US11771706B2, “Oral solutions comprising fludrocortisone acetate” (LABOMED PHARMACEUTICAL COMPANY S.A., priority 2020, dated 2023).

Experiments:
[1] = Storage stability of aqueous liquid compositions of fludrocortisone acetate (Example 1), HPLC; assay type: physicochemical; conditions: conclusion from Tables 1a-1c, 40° C., 75% RH, three months
Method: Storage conditions of temperature (40° C.) and relative humidity (75%) applied for a period of three months. Quantification of fludrocortisone acetate and its degradation impurities was performed by HPLC.

[2] = relative to cortisol; cited from earlier work

CC(=O)OCC(=O)[C@@]1(O)CC[C@H]2[C@@H]3CCC4=CC(=O)CC[C@]4(C)[C@@]3(F)[C@@H](O)C[C@@]21C [Fludrocortisone acetate]
stability of fludrocortisone acetate in aqueous compositions [1]: unstable and easily hydrolyzed | glucocorticoid potency [2]: 10 times
